Results as given in patent US11447480B2, “Compound exhibiting enteropeptidase inhibitory activity” (LG CHEM, LTD., priority 2018, dated 2022).

target: Recombinant Human Enteropeptidase (Homo sapiens (Human), UniProt P98073); test: Enteropeptidase Inhibition Assay; assay type: biochemical; settings: substrate Acetyl-Asp-Asp-Asp-Asp-Lys-AFC 30 μM, 30° C., 1 hour; Ki calculated from IC50 using Cheng-Prusoff equation
Procedure: Enteropeptidase Inhibition Assay
The inhibitory activity of the enteropeptidase inhibitor synthesized using the purified Recombinant Human Enteropeptidase and the substrate Acetyl-Asp-Asp-Asp-Asp-Lys-AFC (BioVision) was measured. 7.2 ng/mL of Enteropeptidase diluted with a buffer (20 mM Tris, 50 mM NaCl, pH 7.5) in a 96 well plate (Costar), 30 μM of Acetyl-Asp-Asp-Asp-Asp-Lys-AFC, several concentrations of Enteropeptidase inhibitors (1% DMSO concentration) were dispensed such that a final volume was 100 μL, and then the enzyme reaction was carried out at 30° C. for 1 hour. At this time, 1% DMSO, a substrate and Enteropeptidase instead of the compound were dispensed onto positive control wells, and 1% DMSO and a substrate were dispensed onto negative control wells. The enzyme reaction was […] using an excitation wavelength of 380 nm and an emission wavelength of 500 nm in a fluorescence spectrometer, and then the rate of increase in fluorescence (milli-units per min) between 20 and 60 minutes was measured.
The fluorescence measurement values reduced by the inhibitor diluted at each concentration were converted into relative values % of the positive control group (100% reactivity) and the negative control group (0% reactivity), and used to calculate IC50 values. IC50 is the concentration of the inhibitor that inhibits the enzyme activity by 50%, and was calculated using PRISM (GraphPad). Ki values were calculated from the IC50 values using Cheng-Prusoff equation.

Recombinant Human Enteropeptidase, sequence (P98073 whole entry): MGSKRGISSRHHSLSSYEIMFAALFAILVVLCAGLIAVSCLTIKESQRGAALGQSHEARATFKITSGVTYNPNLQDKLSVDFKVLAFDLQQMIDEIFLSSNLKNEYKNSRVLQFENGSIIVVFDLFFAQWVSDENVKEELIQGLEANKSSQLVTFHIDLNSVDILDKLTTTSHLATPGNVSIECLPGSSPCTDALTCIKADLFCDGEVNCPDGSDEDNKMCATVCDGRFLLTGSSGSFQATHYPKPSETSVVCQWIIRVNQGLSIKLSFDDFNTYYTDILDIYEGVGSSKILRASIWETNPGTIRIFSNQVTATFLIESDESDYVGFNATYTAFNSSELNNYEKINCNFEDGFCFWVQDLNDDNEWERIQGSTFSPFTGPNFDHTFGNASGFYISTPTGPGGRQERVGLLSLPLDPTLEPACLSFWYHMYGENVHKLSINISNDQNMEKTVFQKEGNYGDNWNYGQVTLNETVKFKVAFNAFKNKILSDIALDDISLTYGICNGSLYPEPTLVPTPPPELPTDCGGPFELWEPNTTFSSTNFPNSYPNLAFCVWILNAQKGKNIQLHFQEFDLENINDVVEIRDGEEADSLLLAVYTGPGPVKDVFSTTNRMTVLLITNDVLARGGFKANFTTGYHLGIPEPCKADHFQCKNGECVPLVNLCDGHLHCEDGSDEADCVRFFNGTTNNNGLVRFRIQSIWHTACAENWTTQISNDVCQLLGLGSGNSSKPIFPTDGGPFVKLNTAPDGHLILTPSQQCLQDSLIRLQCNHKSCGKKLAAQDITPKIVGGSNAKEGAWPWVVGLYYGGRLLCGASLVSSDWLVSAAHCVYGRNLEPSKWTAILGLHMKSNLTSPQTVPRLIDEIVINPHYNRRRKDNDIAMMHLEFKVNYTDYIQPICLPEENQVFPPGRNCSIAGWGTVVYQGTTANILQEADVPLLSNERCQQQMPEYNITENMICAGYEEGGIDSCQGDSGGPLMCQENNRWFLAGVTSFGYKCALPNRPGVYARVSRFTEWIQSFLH

Row | Ki | Compound
1 | 3 nM | COC(=O)CCCN(C)c1ncc(C(=O)Oc2ccc(C(=N)N)cc2F)s1 [Example 21, 4-Carbamimidoyl-2-fluorophenyl 2-((4-methoxy-4-oxobutyl)(methyl)amino)thiazole-5-carboxylate]
2 | 0.57 nM | CN(CCCC(=O)O)c1ncc(C(=O)Oc2ccc(C(=N)N)cc2F)s1 [Example 22, 4-((5-((4-Carbamimidoyl-2-fluorophenoxy)carbonyl)thiazol-2-yl)(methyl)amino)butanoic Acid]
3 | 8.9 nM | COC(=O)C(C)(C)CNc1ncc(C(=O)Oc2ccc(C(=N)N)cc2)s1 [Example 24, 4-Carbamimidoylphenyl 2-((3-methoxy-2,2-dimethyl-3-oxopropyl)amino)thiazole-5-carboxylate]
4 | 4.7 nM | N=C(N)c1ccc(OC(=O)c2cnc(N3CCC(C(=O)N[C@@H](CC(=O)O)C(=O)O)CC3)s2)cc1 [Example 25]
5 | 12 nM | N=C(N)c1ccc(OC(=O)c2cnc(N3CCC(C(=O)Nc4ccccc4)CC3)s2)cc1 [Example 27, 4-Carbamimidoylphenyl 2-(4-(phenylcarbamoyl)piperidin-1-yl)thiazole-5-carboxylate]
6 | 6.5 nM | N=C(N)c1ccc(OC(=O)c2cnc(N3CCC(NC(=O)c4ccccc4)CC3)s2)cc1 [Example 28, 4-Carbamimidoylphenyl 2-(4-benzamidopiperidin-1-yl)thiazole-5-carboxylate]
7 | 18 nM | COC(=O)CNC(=O)C1CCN(c2ncc(C(=O)Oc3ccc(C(=N)N)cc3)s2)CC1 [Example 29, 4-Carbamimidoylphenyl 2-(4-((2-methoxy-2-oxoethyl)carbamoyl)piperidin-1-yl)thiazole-5-carboxylate]
8 | 18 nM | COC(=O)CCNC(=O)C1CCN(c2ncc(C(=O)Oc3ccc(C(=N)N)cc3)s2)CC1 [Example 30, 4-Carbamimidoylphenyl 2-(4-((3-methoxy-3-oxopropyl)carbamoyl)piperidin-1-yl)thiazole-5-carboxylate]
9 | 17 nM | COC(=O)CCCN(C)C(=O)C1CCN(c2ncc(C(=O)Oc3ccc(C(=N)N)cc3)s2)CC1 [Example 31, 4-Carbamimidoylphenyl 2-(4-((4-methoxy-4-oxobutyl)(methyl)carbamoyl)piperidin-1-yl)thiazole-5-carboxylate]
10 | 18 nM | COC(=O)C(C)(C)CNC(=O)C1CCN(c2ncc(C(=O)Oc3ccc(C(=N)N)cc3)s2)CC1 [Example 32, 4-Carbamimidoylphenyl 2-(4-((3-methoxy-2,2-dimethyl-3-oxopropyl)carbamoyl)piperidin-1-yl)thiazole-5-carboxylate]
11 | 8.2 nM | N=C(N)c1ccc(OC(=O)c2cnc(N3CCC(C(=O)NCC(=O)O)CC3)s2)cc1 [Example 33]
12 | 8.9 nM | N=C(N)c1ccc(OC(=O)c2cnc(N3CCC(C(=O)NCCC(=O)O)CC3)s2)cc1 [Example 34]
13 | 9.7 nM | CN(CCCC(=O)O)C(=O)C1CCN(c2ncc(C(=O)Oc3ccc(C(=N)N)cc3)s2)CC1 [Example 35]
14 | 9.7 nM | CC(C)(CNC(=O)C1CCN(c2ncc(C(=O)Oc3ccc(C(=N)N)cc3)s2)CC1)C(=O)O [Example 36]
15 | 1.8 nM | COC(=O)CNC(=O)C1CCN(c2ncc(C(=O)Oc3ccc(C(=N)N)cc3F)s2)CC1 [Example 37, 4-Carbamimidoyl-2-fluorophenyl 2-(4-((2-methoxy-2-oxoethyl)carbamoyl)piperidin-1-yl)thiazole-5-carboxylate]
16 | 2.6 nM | COC(=O)CCNC(=O)C1CCN(c2ncc(C(=O)Oc3ccc(C(=N)N)cc3F)s2)CC1 [Example 38, 4-Carbamimidoyl-2-fluorophenyl 2-(4-((3-methoxy-3-oxopropyl)carbamoyl)piperidin-1-yl)thiazole-5-carboxylate]
17 | 2.5 nM | COC(=O)C(C)(C)CNC(=O)C1CCN(c2ncc(C(=O)Oc3ccc(C(=N)N)cc3F)s2)CC1 [Example 39, 4-Carbamimidoyl-2-fluorophenyl 2-(4-((3-methoxy-2,2-dimethyl-3-oxopropyl)carbamoyl)piperidin-1-yl)thiazole-5-carboxylate]

Row | Ki | Compound
18 | 9.7 nM | COc1ccc(NC(=O)C2CCN(c3ncc(C(=O)Oc4ccc(C(=N)N)cc4)s3)CC2)cc1 [Example 40, 4-carbamimidoylphenyl 2-(4-((4-methoxyphenyl)carbamoyl)piperidin-1-yl)thiazole-5-carboxylate]
19 | 1.8 nM | COC(=O)CCCN(C)C(=O)C1CCN(c2ncc(C(=O)Oc3ccc(C(=N)N)cc3F)s2)CC1 [Example 41, 4-Carbamimidoyl-2-fluorophenyl 2-(4-((4-methoxy-4-oxobutyl)(methyl)carbamoyl)piperidin-1-yl)thiazole-5-carboxylate]
20 | 1 nM | N=C(N)c1ccc(OC(=O)c2cnc(N3CCC(C(=O)NCC(=O)O)CC3)s2)c(F)c1 [Example 42, (1-(5-((4-Carbamimidoyl-2-fluorophenoxy)carbonyl)thiazol-2-yl)piperidine-4-carbonyl)glycine]
21 | 1.7 nM | N=C(N)c1ccc(OC(=O)c2cnc(N3CCC(C(=O)NCCC(=O)O)CC3)s2)c(F)c1 [Example 43, 3-(1-(5-((4-Carbamimidoyl-2-fluorophenoxy)carbonyl)thiazol-2-yl)piperidine-4-carboxamido)propanoic Acid]
22 | 1.6 nM | CN(CCCC(=O)O)C(=O)C1CCN(c2ncc(C(=O)Oc3ccc(C(=N)N)cc3F)s2)CC1 [Example 44, 4-(1-(5-((4-carbamimidoyl-2-fluorophenoxy)carbonyl)thiazol-2-yl)-N-methylpiperidine-4-carboxamido)butanoic Acid]
23 | 1.5 nM | CC(C)(CNC(=O)C1CCN(c2ncc(C(=O)Oc3ccc(C(=N)N)cc3F)s2)CC1)C(=O)O [Example 45, 3-(1-(5-((4-Carbamimidoyl-2-fluorophenoxy)carbonyl)thiazol-2-yl)piperidine-4-carboxamido)-2,2-dimethylpropanoic Acid]
24 | 40 nM | CCN(CCC(=O)N[C@@H](CC(=O)OC(C)(C)C)C(=O)OC(C)(C)C)c1ncc(C(=O)Oc2ccc(C(=N)N)cc2F)s1 [Example 46, Di-tert-butyl(3-((5-((4-carbamimidoyl-2-fluorophenoxy)carbonyl)thiazol-2-yl)(ethyl)amino)propanoyl)-L-aspartate]
25 | 0.52 nM | CCN(CCC(=O)N[C@@H](CC(=O)O)C(=O)O)c1ncc(C(=O)Oc2ccc(C(=N)N)cc2F)s1 [Example 47, (3-((5-((4-Carbamimidoyl-2-fluorophenoxy)carbonyl)thiazol-2-yl)(ethyl)amino)propanoyl)-L-aspartic Acid]
26 | 37 nM | CCN(CCC(=O)N[C@H](CCC(=O)OC(C)(C)C)C(=O)OC(C)(C)C)c1ncc(C(=O)Oc2ccc(C(=N)N)cc2F)s1 [Example 48]
27 | 0.57 nM | CCN(CCC(=O)N[C@H](CCC(=O)O)C(=O)O)c1ncc(C(=O)Oc2ccc(C(=N)N)cc2F)s1 [Example 49, (3-((5-((4-Carbamimidoyl-2-fluorophenoxy)carbonyl)thiazol-2-yl)(ethyl)amino)propanoyl)-D-glutamic Acid]
28 | 14 nM | CCN(CCC(=O)Nc1ccc(C(=O)OC)cc1)c1ncc(C(=O)Oc2ccc(C(=N)N)cc2F)s1 [Example 50, 4-Carbamimidoyl-2-fluorophenyl 2-(ethyl(3-((4-(methoxycarbonyl)phenyl)amino)-3-oxopropyl)amino)thiazole-5-carboxylate]
29 | 9.7 nM | CCN(CCC(=O)Nc1cccc(C(=O)OC)c1)c1ncc(C(=O)Oc2ccc(C(=N)N)cc2F)s1 [Example 51, 4-Carbamimidoyl-2-fluorophenyl 2-(ethyl(3-((3-(methoxycarbonyl)phenyl)amino)-3-oxopropyl)amino)thiazole-5-carboxylate]
30 | 12 nM | CCN(CCC(=O)Nc1cccc(C(=O)OC(C)(C)C)c1)c1ncc(C(=O)Oc2ccc(C(=N)N)cc2F)s1 [Example 53]
31 | 2.5 nM | CCN(CCC(=O)Nc1cccc(C(=O)O)c1)c1ncc(C(=O)Oc2ccc(C(=N)N)cc2F)s1 [Example 54, 3-(3-((5-((4-Carbamimidoyl-2-fluorophenoxy)carbonyl)thiazol-2-yl)(ethyl)amino)propanamido)benzoic Acid]
32 | 8.2 nM | CCN(CCC(=O)Nc1ccc(C(=O)O)cc1)c1ncc(C(=O)Oc2ccc(C(=N)N)cc2F)s1 [Example 55, 4-(3-((5-((4-Carbamimidoyl-2-fluorophenoxy)carbonyl)thiazol-2-yl)(ethyl)amino)propanamido)benzoic Acid]
33 | 0.59 nM | CC(C)(CNc1nc2ccc(C(=O)Oc3ccc(C(=N)N)cc3F)cc2s1)C(=O)O [Example 56, 3-((6-((4-Carbamimidoyl-2-fluorophenoxy)carbonyl)benzo[d]thiazol-2-yl)amino)-2,2-dimethylpropanoic Acid]
34 | 13 nM | COC(=O)C1CCN(c2nc3ccc(C(=O)Oc4ccc(C(=N)N)cc4)cc3s2)CC1 [Example 57, 4-Carbamimidoylphenyl 2-(4-(methoxycarbonyl)piperidin-1-yl)benzo[d]thiazole-6-carboxylate]

Row | Compound | Ki
35 | CCN(CCC(=O)Nc1ccc(C(=O)OC(C)(C)C)cc1)c1ncc(C(=O)Oc2ccc(C(=N)N)cc2F)s1 [Example 52, 4-Carbamimidoyl-2-fluorophenyl 2-((3-((4-(tert-butoxycarbonyl)phenyl)amino)-3-oxopropyl)(ethyl)amino)thiazole-5-carboxylate] | 82 nM
